One series concerns the target ΔTASK121^V600E-ER (Mus musculus, UniProt P19785, G525R). The conditions noted are these: NIH 3T3 ΔTASK121^V600E-ER cells, minimal media, 0-2000 nM 4OHT for 24 hours. The text has this: (§1) To identify genes that are regulated specifically in response to TASK121 activation and not as a result of full mitogenic stimulation, TASK121 was conditionally activated using the previously described estrogen receptor (ER) fusion protein system (Samuels et al., Mol Cell Biol 13:6241-52 (1993)). The catalytic domains of wild-type and oncogenic human TASK121 (denoted as ΔTASK121 and ΔTASK121^V600E, respectively) were fused to a variant of the murine ER hormone-binding domain in which a G525R mutation switches responsiveness from endogenous estrogen to a synthetic antagonist, 4-hydroxytamoxifen (4OHT) (Danielian, et al., Mol Endocrinol 7:232-40 (1993)). […] NIH 3T3 cells expressing ΔTASK121-ER, ΔTASK121^V600E-ER or empty vector were derived by retroviral infection and several independent clones were characterized to ensure against a clonal selection bias. To determine effective doses for inducing TASK121 kinase activity, ΔTASK121-ER and ΔTASK121^V600EER cells were cultured in minimal media and stimulated with 0-2000 nM 4OHT for 24 hours. […] Accumulation of ΔTASK121-ER and ΔTASK121^V600E-ER chimeric proteins and corresponding ERK1/2 phosphorylation were detected by immunoblotting.

The next series has as its target ΔTASK121-ER (Mus musculus, UniProt P19785, G525R). The conditions noted are these: NIH 3T3 ΔTASK121-ER cells, minimal media, 0-2000 nM 4OHT for 24 hours.
From the text: as §1

For a further series, the system named is ΔTASK121^V600E-ER cells. Description: Morphological transformation of 3T3 cells upon 4OHT induction. The class given is cell-based. The conditions noted are these: 200 nM 4OHT, within 24 hours.
The test system of another series is tumor. The conditions noted are these: nude mouse tumor model (Teicher et al. 2002); cited from earlier work.
In the next series the test system is MEK1/2. On the procedure: Experiments were performed to identify the TASK121 downstream signals that are important for TASK122 expression. A375, 928-MEL, COL0205 and SK23-MEL cell lines were characterized for TASK121 and RAS activating mutations and TASK122 expression was measured by immunoblotting of these tumors cells when cultured in the presence or absence of the MEK1/2 inhibitor, U0126 (Favata et al., J Biol Chem 273:18623-32 (1998)).

A further series concerns endogenous TASK121. Description: Dox-induced shRNA knockdown in A375 melanoma cells, immunoblotting. It is filed as cell-based. An excerpt:
The regulation of TASK122 by TASK 121 was directly addressed in an RNAi knockdown experiment. A375 melanoma cells, which contain an endogenous TASK121^V600E allele, were infected with a retrovirus expressing either TASK121 specific shRNAs or a control firefly Luciferase shRNA. Hairpin oligonucleotides used in this study are as follows:
In this system, the Tet repressor protein binds a modified polIII promoter thereby preventing shRNA expression. However, in the presence of a tetracycline analog, doxycycline (Dox), the Tet repressor protein is released from the promoter resulting in shRNA transcription and knockdown of endogenous TASK121 or luciferase expression.

Setting [1] is: 10 μM U0126, A375, 928-MEL, COL0205 and SK23-MEL cell lines.

Sequence of ΔTASK121-ER (P19785 315-551 G525R limits assumed): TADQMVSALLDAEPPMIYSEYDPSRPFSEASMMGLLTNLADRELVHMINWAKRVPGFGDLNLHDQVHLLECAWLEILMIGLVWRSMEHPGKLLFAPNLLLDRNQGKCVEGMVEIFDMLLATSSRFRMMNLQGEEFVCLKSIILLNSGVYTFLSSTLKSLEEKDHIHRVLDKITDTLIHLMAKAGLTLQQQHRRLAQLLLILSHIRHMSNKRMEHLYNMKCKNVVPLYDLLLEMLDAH
Sequence of ΔTASK121-ER (P15056 457-717 partner limits assumed): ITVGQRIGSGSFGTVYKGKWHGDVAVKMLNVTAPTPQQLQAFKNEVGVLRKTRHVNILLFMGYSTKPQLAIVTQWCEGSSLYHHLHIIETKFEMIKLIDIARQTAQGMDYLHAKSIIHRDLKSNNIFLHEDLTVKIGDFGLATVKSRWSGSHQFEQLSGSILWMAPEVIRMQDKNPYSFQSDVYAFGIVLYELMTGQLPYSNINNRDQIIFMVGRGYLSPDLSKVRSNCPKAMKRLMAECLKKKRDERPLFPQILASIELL
Sequence of ΔTASK121^V600E-ER (P19785 315-551 G525R): as the sequence (P19785 315-551 G525R limits assumed) above
Sequence of ΔTASK121^V600E-ER (P15056 457-717 V600E partner limits assumed): as the sequence (P15056 457-717 partner limits assumed) above, with V144E counted along it

Consider 4-hydroxytamoxifen [4OHT], for which the “4OHT concentration at which TASK121-mediated signaling was maximal” value at ΔTASK121^V600E-ER was found to be 10 nM; on ΔTASK121-ER, 100 nM. In addition, the cell morphology entry in the series with ΔTASK121^V600E-ER cells is “refractile and spindle-shaped phenotype”.
Regarding `Cl.Cn1cc(C2=C(c3cn(C4CCN(Cc5ccccn5)CC4)c4ccccc34)C(=O)NC2=O)c2ccccc21` [317615-HCL], in the series with tumor, the anti-tumor effect entry is reported as “anti-tumor effect”.
Consider `N#CC(=C(/N)Sc1ccccc1N)/C(C#N)=C(\N)Sc1ccccc1N` [U0126], for which the TASK122 expression result with MEK1/2 (10 μM U0126, inhibition of ERK1/2 phosphorylation) was “abolished”. In the series with MEK1/2 (setting [1]), the ERK1/2 phosphorylation entry is recorded as “decreased” and the “total ERK2 levels” value is “unaffected”.

B1: TASK121 shRNA: hairpin oligonucleotides SEQ ID NO: 7 (sense) and SEQ ID NO: 8 (antisense), retrovirally expressed, Tet-regulated (nucleic acid)
sense: GATCCCCAGAATTGGATCTGGATCATTTCAAGAGAATGATCCAGATCCAATTCTTTTTTTGGAAA
antisense: AGCTTTTCCAAAAAAAGAATTGGATCTGGATCATTCTCTTGAAATGATCCAGATCCAATTCTGGG
modifications: the letters are possibly those of the target site
For the molecule B1, in the series on endogenous TASK121, the TASK122 levels result is reported as “significant reduction”, the “phosphorylated ERK1/2” value is given as “significant reduction” and the “total ERK2 levels” value is recorded as “remained unchanged”.

B2: Luciferase shRNA: control firefly Luciferase shRNA, SEQ ID NO: 9 (sense) and 10 (antisense) (nucleic acid)
sense: GATCCCCCTTACGCTGAGTACTTCGATTCAAGAGATCGAAGTACTCAGCGTAAGTTTTTTGGAAA
antisense: AGCTTTTCCAAAAAACTTACGCTGAGTACTTCGATCTCTTGAATCGAAGTACTCAGCGTAAGGGG
modifications: the letters are possibly those of the target site
On to B2, for which the TASK122 levels entry in the series on endogenous TASK121 was “did not alter”.
